Several values for one entry are separate records, joined by “and”; a condition that tells them apart may be missing. Equal values may be shown once.
System: 616215-338-R-J1-PDC complex spheroid growth, % test/control
Experiment: Anticancer human tumor 616215-338-R-J1-PDC patient-derived colon adenocarcinoma cell line growth inhibition [Asc]
Conditions: for viability, T/C: stronger effect = lower value
Method in brief: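 Concentration series start at each agent's clinical Cmax, or at 10 microM when none is established, and drop in half-log steps; agents are applied alone or together to complex spheroids built with HUVEC and hMSC.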

[1] = curve of first compound, second compound 0.03 µM
[2] = curve of first compound, second compound 0.0949 µM
[3] = curve of first compound, second compound 0.3 µM
[4] = curve of first compound, second compound 0.949 µM
[5] = curve of first compound, second compound 3 µM
[6] = second compound 0.03 µM, first compound 0.00316 µM
[7] = second compound 0.03 µM, first compound 0.01 µM
[8] = second compound 0.03 µM, first compound 0.0316 µM
[9] = second compound 0.03 µM, first compound 0.1 µM
[10] = second compound 0.03 µM, first compound 0.316 µM
[11] = second compound 0.03 µM, first compound 1 µM
[12] = second compound 0.0949 µM, first compound 0.00316 µM
[13] = second compound 0.0949 µM, first compound 0.01 µM
[14] = second compound 0.0949 µM, first compound 0.0316 µM
[15] = second compound 0.0949 µM, first compound 0.1 µM
[16] = second compound 0.0949 µM, first compound 0.316 µM
[17] = second compound 0.0949 µM, first compound 1 µM
[18] = second compound 0.3 µM, first compound 0.00316 µM
[19] = second compound 0.3 µM, first compound 0.01 µM
[20] = second compound 0.3 µM, first compound 0.0316 µM
[21] = second compound 0.3 µM, first compound 0.1 µM
[22] = second compound 0.3 µM, first compound 0.316 µM
[23] = second compound 0.3 µM, first compound 1 µM
[24] = second compound 0.949 µM, first compound 0.00316 µM
[25] = second compound 0.949 µM, first compound 0.01 µM
[26] = second compound 0.949 µM, first compound 0.0316 µM
[27] = second compound 0.949 µM, first compound 0.1 µM
[28] = second compound 0.949 µM, first compound 0.316 µM
[29] = second compound 0.949 µM, first compound 1 µM
[30] = second compound 3 µM, first compound 0.00316 µM
[31] = second compound 3 µM, first compound 0.01 µM
[32] = second compound 3 µM, first compound 0.0316 µM
[33] = second compound 3 µM, first compound 0.1 µM
[34] = second compound 3 µM, first compound 0.316 µM
[35] = second compound 3 µM, first compound 1 µM
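Also: spheroids exposed to agents for seven days before readout.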
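For viability, T/C in this document: 100% = DMSO vehicle control viability.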

O=C(c1cc(Cc2n[nH]c(=O)c3ccccc23)ccc1F)N1CCN(C(=O)C2CC2)CC1 + Cc1c(S(C)(=O)=O)c(-c2cc(F)cc(N3CCN(c4ccc(NS(=O)(=O)c5ccc(NC(CCN6CCC(C(=O)OCCCP(=O)(O)O)CC6)CSc6ccccc6)c(S(=O)(=O)C(F)(F)F)c5)cc4)CC3)c2)c(-c2ccc(Cl)cc2)n1C(C)C
IC50 (curve of first compound, second compound 0.1 µM): > 10000 nM
IC50 (curve of first compound, second compound 0.316 µM): 6750 nM
IC50 (curve of first compound, second compound 1 µM): 755 nM
IC50 (curve of first compound, second compound 3.16 µM): < 31.6 nM
IC50 (curve of first compound, second compound 10 µM): < 31.6 nM
viability, T/C (second compound 0.1 µM, first compound 0.0316 µM): 95.5%
viability, T/C (second compound 0.1 µM, first compound 0.1 µM): 96%
viability, T/C (second compound 0.1 µM, first compound 0.316 µM): 92.5%
viability, T/C (second compound 0.1 µM, first compound 1 µM): 92%
viability, T/C (second compound 0.1 µM, first compound 3.16 µM): 89.1%
viability, T/C (second compound 0.1 µM, first compound 10 µM): 78.8%
viability, T/C (second compound 0.316 µM, first compound 0.0316 µM): 88.8%
viability, T/C (second compound 0.316 µM, first compound 0.1 µM): 90%
viability, T/C (second compound 0.316 µM, first compound 0.316 µM): 85.4%
viability, T/C (second compound 0.316 µM, first compound 1 µM): 86.5%
viability, T/C (second compound 0.316 µM, first compound 3.16 µM): 66.6%
viability, T/C (second compound 0.316 µM, first compound 10 µM): 41.4%
viability, T/C (second compound 1 µM, first compound 0.0316 µM): 72.7%
viability, T/C (second compound 1 µM, first compound 0.1 µM): 67.6%
viability, T/C (second compound 1 µM, first compound 0.316 µM): 59%
viability, T/C (second compound 1 µM, first compound 1 µM): 49%
viability, T/C (second compound 1 µM, first compound 3.16 µM): 26.3%
viability, T/C (second compound 1 µM, first compound 10 µM): 10.9%
viability, T/C (second compound 3.16 µM, first compound 0.0316 µM): 34%
viability, T/C (second compound 3.16 µM, first compound 0.1 µM): 30.4%
viability, T/C (second compound 3.16 µM, first compound 0.316 µM): 25.3%
viability, T/C (second compound 3.16 µM, first compound 1 µM): 17.2%
viability, T/C (second compound 3.16 µM, first compound 3.16 µM): 3.59%
viability, T/C (second compound 3.16 µM, first compound 10 µM): 2.49%
viability, T/C (second compound 10 µM, first compound 0.0316 µM): 20.7%
viability, T/C (second compound 10 µM, first compound 0.1 µM): 18.4%
viability, T/C (second compound 10 µM, first compound 0.316 µM): 11.2%
viability, T/C (second compound 10 µM, first compound 1 µM): 3.83%
viability, T/C (second compound 10 µM, first compound 3.16 µM): 1.31%
viability, T/C (second compound 10 µM, first compound 10 µM): 1.84%

COc1c(OCCCN2CCOCC2)ccc2c3n(c(=NC(=O)c4cnc(N)nc4)nc12)CCN3 + CCN1C(C(=O)NC23CCC(C(=O)O)(CC2)CC3)C(c2cccc(Cl)c2F)C2(C(=O)Nc3cc(Cl)ccc32)C12CCCCC2
IC50 [1]: 153 nM
IC50 [2]: 73.4 nM
IC50 [3]: 21.9 nM
IC50 [4]: 9.45 nM
IC50 [5]: < 3.16 nM
viability, T/C [6]: 95.7%
viability, T/C [7]: 99.4%
viability, T/C [8]: 99.7%
viability, T/C [9]: 63.6%
viability, T/C [10]: 26%
viability, T/C [11]: 13.1%
viability, T/C [12]: 89.3%
viability, T/C [13]: 81.2%
viability, T/C [14]: 74.2%
viability, T/C [15]: 41%
viability, T/C [16]: 15.2%
viability, T/C [17]: 6.02%
viability, T/C [18]: 59.7%
viability, T/C [19]: 59.2%
viability, T/C [20]: 46%
viability, T/C [21]: 23.4%
viability, T/C [22]: 9.03%
viability, T/C [23]: 3.12%
viability, T/C [24]: 55.1%
viability, T/C [25]: 47%
viability, T/C [26]: 38.4%
viability, T/C [27]: 14%
viability, T/C [28]: 5.66%
viability, T/C [29]: 1.65%
viability, T/C [30]: 45.7%
viability, T/C [31]: 40.4%
viability, T/C [32]: 27.4%
viability, T/C [33]: 7.37%
viability, T/C [34]: 3.24%
viability, T/C [35]: 0.71%

CCN1C(C(=O)NC23CCC(C(=O)O)(CC2)CC3)C(c2cccc(Cl)c2F)C2(C(=O)Nc3cc(Cl)ccc32)C12CCCCC2 (stereo not given)
viability, T/C (compound 0.00949 µM): 106% and 100%
viability, T/C (compound 0.03 µM): 96.6% [middle of 15 runs]
IC50 (curve of compound): 965 nM and > 3000 nM

Cc1nc(N2CCC3(CC2)COC(C)C3N)c(CO)nc1Sc1ccnc(N)c1Cl (stereo not given)
viability, T/C (compound 0.00949 µM): 102% and 94% and 101%
viability, T/C (compound 0.03 µM): 90.5% and 98.1% and 102%
viability, T/C (compound 0.0949 µM): 104% and 105% and 103%
viability, T/C (compound 0.3 µM): 81.2% and 99.7% and 101%
viability, T/C (compound 0.949 µM): 48% and 102% (2×)
viability, T/C (compound 3 µM): 11.8% and 95.5% and 91.3%
IC50 (curve of compound): 871 nM and > 3000 nM

CCN1CCN(Cc2ccc(Nc3ncc(F)c(-c4cc(F)c5nc(C)n(C(C)C)c5c4)n3)nc2)CC1 + CCN1C(C(=O)NC23CCC(C(=O)O)(CC2)CC3)C(c2cccc(Cl)c2F)C2(C(=O)Nc3cc(Cl)ccc32)C12CCCCC2
IC50 [1]: > 1000 nM
IC50 [2]: > 1000 nM
IC50 [3]: > 1000 nM
IC50 [4]: > 1000 nM
IC50 [5]: 150 nM
viability, T/C [6]: 102%
viability, T/C [7]: 99.2%
viability, T/C [8]: 104%
viability, T/C [9]: 108%
viability, T/C [10]: 108%
viability, T/C [11]: 116%
viability, T/C [12]: 93.6%
viability, T/C [13]: 96%
viability, T/C [14]: 97.2%
viability, T/C [15]: 80.5%
viability, T/C [16]: 88.2%
viability, T/C [17]: 75.2%
viability, T/C [18]: 66.2%
viability, T/C [19]: 67%
viability, T/C [20]: 63.3%
viability, T/C [21]: 58.3%
viability, T/C [22]: 69.5%
viability, T/C [23]: 59.9%
viability, T/C [24]: 60.5%
viability, T/C [25]: 66.6%
viability, T/C [26]: 72.1%
viability, T/C [27]: 68.9%
viability, T/C [28]: 83.6%
viability, T/C [29]: 52%
viability, T/C [30]: 48.2%
viability, T/C [31]: 52.4%
viability, T/C [32]: 48.3%
viability, T/C [33]: 56.4%
viability, T/C [34]: 54.7%
viability, T/C [35]: 42.2%

NC1CCC(NC2CC2c2ccccc2)CC1 (stereo not given) + CCN1C(C(=O)NC23CCC(C(=O)O)(CC2)CC3)C(c2cccc(Cl)c2F)C2(C(=O)Nc3cc(Cl)ccc32)C12CCCCC2
IC50 [1]: > 100 nM
IC50 [2]: > 100 nM
IC50 [3]: > 100 nM
IC50 [4]: > 100 nM
IC50 [5]: > 100 nM
viability, T/C (second compound 0.03 µM, first compound 0.000316 µM): 106%
viability, T/C (second compound 0.03 µM, first compound 0.001 µM): 98.2%
viability, T/C [6]: 99.7%
viability, T/C [7]: 104%
viability, T/C [8]: 100%
viability, T/C [9]: 103%
viability, T/C (second compound 0.0949 µM, first compound 0.000316 µM): 95.5%
viability, T/C (second compound 0.0949 µM, first compound 0.001 µM): 100%
viability, T/C [12]: 91.3%
viability, T/C [13]: 91.7%
viability, T/C [14]: 93.8%
viability, T/C [15]: 95.2%
viability, T/C (second compound 0.3 µM, first compound 0.000316 µM): 68.9%
viability, T/C (second compound 0.3 µM, first compound 0.001 µM): 67.6%
viability, T/C [18]: 73%
viability, T/C [19]: 65.9%
viability, T/C [20]: 62.4%
viability, T/C [21]: 68%
viability, T/C (second compound 0.949 µM, first compound 0.000316 µM): 73.4%
viability, T/C (second compound 0.949 µM, first compound 0.001 µM): 72.2%
viability, T/C [24]: 83.7%
viability, T/C [25]: 71.7%
viability, T/C [26]: 70.1%
viability, T/C [27]: 72.7%
viability, T/C (second compound 3 µM, first compound 0.000316 µM): 54.6%
viability, T/C (second compound 3 µM, first compound 0.001 µM): 58.9%
viability, T/C [30]: 58.2%
viability, T/C [31]: 62.9%
viability, T/C [32]: 51%
viability, T/C [33]: 54.3%
